Reference: ChEMBL document CHEMBL4765227, “Hit to lead optimization of a series of N-[4-(1,3-benzothiazol-2-yl)phenyl]acetamides as monoacylglycerol lipase inhibitors with potential anticancer activity” (Eur J Med Chem, 2016)

Tests used:
Type in all cases: functional
Conditions in all cases: read-out: GI
[1] = tested on: HL-60(TB); test: Growth inhibition of human HL-60(TB) cells at 10 uM incubated for 48 hrs by sulforhodamine B assay relative to control
[2] = tested on: MOLT-4; test: Growth inhibition of human MOLT-4 cells at 10 uM incubated for 48 hrs by sulforhodamine B assay relative to control
[3] = tested on: RPMI-8226; test: Growth inhibition of human RPMI-8226 cells at 10 uM incubated for 48 hrs by sulforhodamine B assay relative to control
[4] = tested on: SR; test: Growth inhibition of human SR cells at 10 uM incubated for 48 hrs by sulforhodamine B assay relative to control
[5] = tested on: A549; test: Growth inhibition of human A549/ATCC cells at 10 uM incubated for 48 hrs by sulforhodamine B assay relative to control
[6] = tested on: HOP-62; test: Growth inhibition of human HOP-62 cells at 10 uM incubated for 48 hrs by sulforhodamine B assay relative to control
[7] = tested on: HOP-92; test: Growth inhibition of human HOP-92 cells at 10 uM incubated for 48 hrs by sulforhodamine B assay relative to control
[8] = tested on: NCI-H226; test: Growth inhibition of human NCI-H226 cells at 10 uM incubated for 48 hrs by sulforhodamine B assay relative to control
[9] = tested on: NCI-H23; test: Growth inhibition of human NCI-H23 cells at 10 uM incubated for 48 hrs by sulforhodamine B assay relative to control
[10] = tested on: NCI-H322M; test: Growth inhibition of human NCI-H322M cells at 10 uM incubated for 48 hrs by sulforhodamine B assay relative to control
[11] = tested on: NCI-H522; test: Growth inhibition of human NCI-H522 cells at 10 uM incubated for 48 hrs by sulforhodamine B assay relative to control
[12] = tested on: COLO 205; test: Growth inhibition of human COLO 205 cells at 10 uM incubated for 48 hrs by sulforhodamine B assay relative to control
[13] = tested on: HCC 2998; test: Growth inhibition of human HCC 2998 cells at 10 uM incubated for 48 hrs by sulforhodamine B assay relative to control
[14] = tested on: HCT-116; test: Growth inhibition of human HCT-116 cells at 10 uM incubated for 48 hrs by sulforhodamine B assay relative to control
[15] = tested on: HCT-15; test: Growth inhibition of human HCT-15 cells at 10 uM incubated for 48 hrs by sulforhodamine B assay relative to control
[16] = tested on: HT-29; test: Growth inhibition of human HT-29 cells at 10 uM incubated for 48 hrs by sulforhodamine B assay relative to control
[17] = tested on: KM12; test: Growth inhibition of human KM12 cells at 10 uM incubated for 48 hrs by sulforhodamine B assay relative to control
[18] = tested on: SW-620; test: Growth inhibition of human SW-620 cells at 10 uM incubated for 48 hrs by sulforhodamine B assay relative to control
[19] = tested on: SF-268; test: Growth inhibition of human SF-268 cells at 10 uM incubated for 48 hrs by sulforhodamine B assay relative to control
[20] = tested on: SF-295; test: Growth inhibition of human SF-295 cells at 10 uM incubated for 48 hrs by sulforhodamine B assay relative to control
[21] = tested on: SF-539; test: Growth inhibition of human SF-539 cells at 10 uM incubated for 48 hrs by sulforhodamine B assay relative to control
[22] = tested on: SNB-75; test: Growth inhibition of human SNB-75 cells at 10 uM incubated for 48 hrs by sulforhodamine B assay relative to control
[23] = tested on: U-251; test: Growth inhibition of human U-251 cells at 10 uM incubated for 48 hrs by sulforhodamine B assay relative to control
[24] = tested on: LOX IMVI; test: Growth inhibition of human LOX IMVI cells at 10 uM incubated for 48 hrs by sulforhodamine B assay relative to control
[25] = tested on: Malme-3M; test: Growth inhibition of human Malme-3M cells at 10 uM incubated for 48 hrs by sulforhodamine B assay relative to control
[26] = tested on: M14; test: Growth inhibition of human M14 cells at 10 uM incubated for 48 hrs by sulforhodamine B assay relative to control
[27] = tested on: UACC-257; test: Growth inhibition of human UACC-257 cells at 10 uM incubated for 48 hrs by sulforhodamine B assay relative to control
[28] = tested on: OVCAR-3; test: Growth inhibition of human OVCAR-3 cells at 10 uM incubated for 48 hrs by sulforhodamine B assay relative to control
[29] = tested on: OVCAR-4; test: Growth inhibition of human OVCAR-4 cells at 10 uM incubated for 48 hrs by sulforhodamine B assay relative to control
[30] = tested on: OVCAR-5; test: Growth inhibition of human OVCAR-5 cells at 10 uM incubated for 48 hrs by sulforhodamine B assay relative to control
[31] = tested on: OVCAR-8; test: Growth inhibition of human OVCAR-8 cells at 10 uM incubated for 48 hrs by sulforhodamine B assay relative to control
[32] = tested on: NCI/ADR-RES; test: Growth inhibition of human NCI/ADR-RES cells at 10 uM incubated for 48 hrs by sulforhodamine B assay relative to control
[33] = tested on: 786-0; test: Growth inhibition of human 786-0 cells at 10 uM incubated for 48 hrs by sulforhodamine B assay relative to control
[34] = tested on: ACHN; test: Growth inhibition of human ACHN cells at 10 uM incubated for 48 hrs by sulforhodamine B assay relative to control
[35] = tested on: CAKI-1; test: Growth inhibition of human CAKI-1 cells at 10 uM incubated for 48 hrs by sulforhodamine B assay relative to control
[36] = tested on: RXF 393; test: Growth inhibition of human RXF 393 cells at 10 uM incubated for 48 hrs by sulforhodamine B assay relative to control
[37] = tested on: SN12C; test: Growth inhibition of human SN12C cells at 10 uM incubated for 48 hrs by sulforhodamine B assay relative to control
[38] = tested on: UO-31; test: Growth inhibition of human UO-31 cells at 10 uM incubated for 48 hrs by sulforhodamine B assay relative to control
[39] = tested on: PC-3; test: Growth inhibition of human PC-3 cells at 10 uM incubated for 48 hrs by sulforhodamine B assay relative to control
[40] = tested on: DU-145; test: Growth inhibition of human DU-145 cells at 10 uM incubated for 48 hrs by sulforhodamine B assay relative to control
[41] = tested on: MCF7; test: Growth inhibition of human MCF7 cells at 10 uM incubated for 48 hrs by sulforhodamine B assay relative to control
[42] = tested on: MDA-MB-231; test: Growth inhibition of human MDA-MB-231 cells at 10 uM incubated for 48 hrs by sulforhodamine B assay relative to control
[43] = tested on: Hs-578T; test: Growth inhibition of human Hs-578T cells at 10 uM incubated for 48 hrs by sulforhodamine B assay relative to control
[44] = tested on: MDA-MB-468; test: Growth inhibition of human MDA-MB-468 cells at 10 uM incubated for 48 hrs by sulforhodamine B assay relative to control

With O=C(CNc1ccc(Cl)cc1)Nc1ccc(-c2nc3ccccc3s2)cc1 the inhibition of growth at 10 µM [1] was 29%, the inhibition of growth at 10 µM [2] was 95.6% and the inhibition of growth at 10 µM [3] was 54%. For the same compound, the inhibition of growth at 10 µM [4] was 88.5%, the inhibition of growth at 10 µM [5] was 11% and the inhibition of growth at 10 µM [6] was -16.2%. It also gave an inhibition of growth at 10 µM [7] of 2.16%, an inhibition of growth at 10 µM [8] of 41.9% and an inhibition of growth at 10 µM [9] of 60.9%. The inhibition of growth at 10 µM [10] was 19.7%, the inhibition of growth at 10 µM [11] was 194% and the inhibition of growth at 10 µM [12] was 53%. The inhibition of growth at 10 µM [13] was 116%, the inhibition of growth at 10 µM [14] was 76.7% and the inhibition of growth at 10 µM [15] was 114%. The inhibition of growth at 10 µM [16] was 52.1%, the inhibition of growth at 10 µM [17] was 19.3% and the inhibition of growth at 10 µM [18] was 77.4%. It also gave an inhibition of growth at 10 µM [19] of 75.9%, an inhibition of growth at 10 µM [20] of 5.37% and an inhibition of growth at 10 µM [21] of 21.9%. The inhibition of growth at 10 µM [22] was 39.9%, the inhibition of growth at 10 µM [23] was 73.7% and the inhibition of growth at 10 µM [24] was 141%. It also gave an inhibition of growth at 10 µM [25] of 130%, an inhibition of growth at 10 µM [26] of 55.8% and an inhibition of growth at 10 µM [27] of 9.09%. It also gave an inhibition of growth at 10 µM [28] of 71.1%, an inhibition of growth at 10 µM [29] of 76.9% and an inhibition of growth at 10 µM [30] of -21.1%. The inhibition of growth at 10 µM [31] was 33.6%, the inhibition of growth at 10 µM [32] was 35.5% and the inhibition of growth at 10 µM [33] was 73%. It also gave an inhibition of growth at 10 µM [34] of 77.2%, an inhibition of growth at 10 µM [35] of 79.8% and an inhibition of growth at 10 µM [36] of 15.8%. It also gave an inhibition of growth at 10 µM [37] of 53.2%, an inhibition of growth at 10 µM [38] of 35% and an inhibition of growth at 10 µM [39] of 14.7%. It also gave an inhibition of growth at 10 µM [40] of 29.8%, an inhibition of growth at 10 µM [41] of 88.5% and an inhibition of growth at 10 µM [42] of 62.4%. The inhibition of growth at 10 µM [43] was 15.9% and the inhibition of growth at 10 µM [44] was 111%.
Compound Cc1ccc(NCC(=O)Nc2ccc(-c3nc4ccccc4s3)cc2)cc1 has an inhibition of growth at 10 µM [1] of 18.2%, an inhibition of growth at 10 µM [2] of 41.9% and an inhibition of growth at 10 µM [3] of 18.6%. The inhibition of growth at 10 µM [4] was 19.1%, the inhibition of growth at 10 µM [5] was 13.8% and the inhibition of growth at 10 µM [6] was 3.62%. For the same compound, the inhibition of growth at 10 µM [7] was 15.7%, the inhibition of growth at 10 µM [8] was 5.78% and the inhibition of growth at 10 µM [9] was 16.4%. It also gave an inhibition of growth at 10 µM [10] of 4.73%, an inhibition of growth at 10 µM [11] of 12.3% and an inhibition of growth at 10 µM [12] of -3.48%. It also gave an inhibition of growth at 10 µM [13] of 17%, an inhibition of growth at 10 µM [14] of 5.72% and an inhibition of growth at 10 µM [15] of 13.4%. It also gave an inhibition of growth at 10 µM [16] of -6.9%, an inhibition of growth at 10 µM [17] of 0.91% and an inhibition of growth at 10 µM [18] of -7.34%. The inhibition of growth at 10 µM [19] was 12.6%, the inhibition of growth at 10 µM [20] was -3.28% and the inhibition of growth at 10 µM [21] was 2.9%. The inhibition of growth at 10 µM [22] was -0.38%, the inhibition of growth at 10 µM [23] was 19.4% and the inhibition of growth at 10 µM [24] was 22.8%. The inhibition of growth at 10 µM [25] was -21.5%, the inhibition of growth at 10 µM [26] was 3.66% and the inhibition of growth at 10 µM [27] was 5.3%. The inhibition of growth at 10 µM [28] was 0.68%, the inhibition of growth at 10 µM [29] was 14.5% and the inhibition of growth at 10 µM [30] was -6.57%. It also gave an inhibition of growth at 10 µM [31] of 7.13%, an inhibition of growth at 10 µM [32] of 2.16% and an inhibition of growth at 10 µM [33] of 10.2%. For the same compound, the inhibition of growth at 10 µM [34] was -6.82%, the inhibition of growth at 10 µM [35] was 0.82% and the inhibition of growth at 10 µM [36] was 10.7%. It also gave an inhibition of growth at 10 µM [37] of 11.1%, an inhibition of growth at 10 µM [38] of 37.5% and an inhibition of growth at 10 µM [39] of 8.39%. It also gave an inhibition of growth at 10 µM [40] of 5.52%, an inhibition of growth at 10 µM [41] of 40.9% and an inhibition of growth at 10 µM [42] of 22.3%. It also gave an inhibition of growth at 10 µM [43] of -3.42% and an inhibition of growth at 10 µM [44] of 13%.
